pIC50: −log10 of the molar value.
Target: Mitogen-activated protein kinase kinase kinase kinase 1 (Homo sapiens, UniProt Q92918)
Assay: HPK1 Biochemical Enzyme Assay
Protocol: HPK1 biochemical enzyme assay: HPK1 enzyme inhibition was measured using a microfluidic mobility shift assay. […] Test compounds were titrated in ten point curves (top final assay concentration 3 μM), and preincubated with enzyme/substrate mix for 30 min prior to initiation of the reaction by addition of ATP (1 mM final concentration) and substrate (1 μM final concentration; Carna Biosciences) diluted in assay buffer supplemented by MgCl2 (final assay concentration of 5 mM). Following 60 min incubation at RT, the reaction was terminated by addition of 60 μl/well termination buffer (Carna Biosciences) and signal determination using a Caliper EZ Reader (Perkin Elmer, UK).

Chain of Mitogen-activated protein kinase kinase kinase kinase 1 (Q92918 whole entry): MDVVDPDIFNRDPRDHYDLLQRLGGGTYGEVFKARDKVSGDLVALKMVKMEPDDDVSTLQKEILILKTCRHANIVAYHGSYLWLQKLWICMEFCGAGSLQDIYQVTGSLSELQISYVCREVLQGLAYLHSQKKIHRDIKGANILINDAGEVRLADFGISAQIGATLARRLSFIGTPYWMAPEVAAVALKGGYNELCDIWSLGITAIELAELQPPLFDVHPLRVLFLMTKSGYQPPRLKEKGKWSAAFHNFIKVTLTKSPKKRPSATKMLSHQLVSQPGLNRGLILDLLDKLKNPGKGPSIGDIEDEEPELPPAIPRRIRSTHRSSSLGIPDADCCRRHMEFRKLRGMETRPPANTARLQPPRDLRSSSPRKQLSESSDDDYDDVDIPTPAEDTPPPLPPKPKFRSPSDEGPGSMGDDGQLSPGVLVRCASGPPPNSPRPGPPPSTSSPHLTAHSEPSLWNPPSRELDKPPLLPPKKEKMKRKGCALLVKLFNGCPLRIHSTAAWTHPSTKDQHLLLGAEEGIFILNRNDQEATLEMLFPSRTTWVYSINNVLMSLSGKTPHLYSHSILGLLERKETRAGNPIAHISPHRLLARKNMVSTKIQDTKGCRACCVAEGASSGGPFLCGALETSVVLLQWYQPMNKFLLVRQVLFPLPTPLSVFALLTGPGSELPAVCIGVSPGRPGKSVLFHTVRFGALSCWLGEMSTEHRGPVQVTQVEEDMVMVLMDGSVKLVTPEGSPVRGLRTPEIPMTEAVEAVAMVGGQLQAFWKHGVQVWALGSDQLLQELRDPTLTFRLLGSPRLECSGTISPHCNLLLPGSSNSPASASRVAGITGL

## CC1=CC2N=CC(c3ccc(Nc4ccc(N5CCC(O)CC5)cn4)c4c3CNC4=O)=C2C=C1 (centres undefined) [US11548890, Compound I-137]
  pIC50: > 7.00

## CC(C)(O)[C@H]1CN(c2ccc(Nc3cnc(-c4cnc5cnccn45)c4c3C(=O)NC4)nc2)CCO1 [US11548890, Compound I-486]
  pIC50: > 7.00

## COC1CCN(c2ccc(Nc3ccc(-c4cnc5c(F)cccn45)c4c3C(=O)NC4)nc2)CC1 [US11548890, Compound I-455]
  IC50: in the range around 550 nM

## CN(C)Cc1nc(Nc2ccc(-c3cnc4ccccn34)c3c2C(=O)NC3)ccc1[C@@H]1CCOC1 [US11548890, Compound I-714]
  pIC50: > 7.00
